Assay results published in patent US20250249056A1, “CANCER THERAPIES COMPRISING A NUCLEAR EXPORT INHIBITOR AND AN ONCOLYTIC VIRUS” (priority 2022, published 2025).

Tests used:
[1] = tested on: MYXV; assay: MYXV infection of 3D spheroid cultures of human cancer cells (GFP/TdTomato fluorescence); format: cell-based, myxoma virus
Description: In vitro three-dimensional (3D) cell culture allows cells to contact each other and form a platform representing in vivo tumor masses (Lv, D., et al., 2017, Oncology Letters, 14:6999-7010). As an initial test whether selinexor can enhance MYXV replication in tumor masses, a 3D cell culture using type 1 collagen was established. The semi-permissive and non-permissive human cancer cells PANC-1 (FIG. 6A), MDA-MB435 (FIG. 6C), HT29 (FIG. 6E), and Colo205 (FIG. 6G) were used to form 3D spheroids in 96 well plates. After several days of incubation, the cells formed spheroids.
After reaching a desirable size, spheroids were mock-treated or treated with different concentrations of selinexor (e.g., 0.1 μM, 1 μM) for one hour then infected with vMyx-GFP-TdTomato (1×10^7 FFU) in the presence of selinexor.
Spheroid Generation and Virus Infection: Different cancer cell lines were grown and maintained as previously described and used for spheroid generation within 2-5 passages. 96-well plates were prepared with rat tail collagen I to form the surface for spheroid culture. On the day of cell seeding for spheroid generation, the cells were dissociated with TrypLE, the TrypLE neutralized with fresh complete media, the cells spun down, and resuspended in fresh complete media. After making a single cell suspension, cells were counted using a Countess II automated cell counter and 1000 cells in 100 μL were plated on the surface of the collagen matrix. The cells were observed daily for spheroid formation. After 5-7 days, when spheroids reached the desired size, they were treated with selinexor and infected with vMyx-GFP-TdTomato.

[2] = tested on: PANC-1 cells; assay: Click-iT EdU cell proliferation assay; format: cell-based, human; details: PANC-1 cells treated for 24 hours; selinexor or MYXV
Procedure: Selinexor was previously reported to reduce the proliferation of cancer cells, however, viral infection also stops cell proliferation (Zheng, Y., et al., 2014, Cancer Chemotherapy and Pharmacology, 74:487-495; Johnston, J. B., et al., 2005, Journal of Virology, 79:10750-10763). As such, the effect of selinexor and MYXV on human cancer cells was examined alone and in combination. To this end, two cell proliferation assays were performed. In the first methods, DNA synthesis was measured by the incorporation of EdU (5-ethynyl-2′-deoxyuridine), a nucleoside analog of thymidine, into DNA during active DNA synthesis (FIG. 4A) (Chehrehasa F., et al., 2009, Journal of Neuroscience Methods, 177:122-130). Using this method in uninfected PANC-1 cells, EdU incorporation was detected in more than 50% of dividing cells (FIG. 4B and FIG. 4C). When cells were treated with selinexor or MYXV for 24 hours, on the other hand, a significant reduction in proliferation was observed (20% EdU-positive cells). […]
Click-iT EdU Cell Proliferation Assay: To visualize and measure cell proliferation, a Click-iT™ EdU cell proliferation assay (Thermo Fisher) was used according to the manufacturer's instructions. […] Fluorescence images were obtained using a fluorescence microscope and fluorescence signals were analyzed using ImageJ software.

## O=C(/C=C\n1cnc(-c2cc(C(F)(F)F)cc(C(F)(F)F)c2)n1)NNc1cnccn1 [selinexor]
[1]; PANC-1, MDA-MB435, HT29, Colo205 spheroids, selinexor 0.1 or 1 μM, vMyx-GFP-TdTomato 1×10^7 FFU
  GFP (early/late) and TdTomato (late) expression in spheroids by fluorescence microscopy: enhanced
[1]; selinexor plus MYXV compared to MYXV infection alone
  virus penetration into spheroids: greater penetration into the spheroid interior
[1]; selinexor-treated vs untreated infected spheroids, 72-96 h post-infection
  quantification of GFP fluorescence in spheroids: significant increase in the level of GFP expression
[2]
  EdU-positive cells: 20%
